Results published in paper PMC10772524 (Haematologica, 2023).

How the values were obtained:
patients = conditions: cited from earlier work
[1] = test system: peripheral T-cell lymphoma (PTCL); conditions: PTCL patients; cited from earlier work
[2] = test system: patients with relapsed/refractory T-cell lymphoma; test: Safety and tolerability of tenalisib plus romidepsin; format: in vivo, human; conditions: for Patients with three or more drug interruptions: during the combination treatment; for Patients with drug interruptions / Patients with dose reductions: overall, during combination treatment; for Patients with drug interruptions: PTCL and CTCL groups
[3] = Plasma pharmacokinetics of tenalisib, IN0385 and romidepsin; format: in vivo, human; conditions: oral, all three cohorts
CYP3A4 = conditions: also substrates for CYP3A4; ref not given; cited from earlier work

Structure (SMILES) | Discontinuation rates due to adverse events, single agent studies (patients) | CR rate with monotherapy [1] [%] | Patients with three or more drug interruptions [2] [%] | MTD/RP2D dose (recommended dose for dose expansion) in the combination ([2]; intravenous, days 1, 8, 15 of 28-day cycle, with tenalisib) [mg/m^2] | Patients with drug interruptions [2] [%] | Patients with dose reductions [2] [%] | Absorption [3] | CYP3A4 inhibition (CYP3A4) | MTD/RP2D dose (recommended dose for dose expansion) in the combination ([2]; orally twice daily (BID), with romidepsin) [mg]
C/C=C1\NC(=O)[C@H]2CSSCC/C=C/[C@H](CC(=O)N[C@H](C(C)C)C(=O)N2)OC(=O)[C@H](C(C)C)NC1=O [romidepsin, reference compound] | 19-28% | 14 | 24.2 | 14 | 63.6 | 33.3 |  |  | 
CC[C@H](Nc1ncnc2[nH]cnc12)c1oc2ccccc2c(=O)c1-c1cccc(F)c1 [tenalisib] |  | 20.0 | 12.1 |  | 60.6 | 27.3 | rapidly absorbed | moderate inhibitors | 800
